“Also recorded” adds a separate entry of the source. Read-outs that look alike come from different tables or passages of the source. Blank lines part the entries; values can stand above or below the compound they belong to.
Columns and labels:
[1] = cited from earlier work
[2] = test system: Nb2-SFJCD1 rat lymphoma cells; experiment: Culture growth inhibition assay in Nb2-SFJCD1 cultures; format: cell-based; settings: for IC50: read-out: IC50 (mM) Average ± S.D.; for growth-inhibitory effect in the presence of elevated cystine: cystine at ca. 3-fold elevated levels in the culture medium, Fig. 5
Protocol: Solubilization of salicylhydroxamic acid and sulfasalazine involved use of 0.1 N NaOH and adjustment of the pH to 7.5-7.7 using 1 N HCl, which was added slowly to the solution swirled by a magnetic stirrer. […] All drugs were obtained from Sigma-Aldrich Canada Ltd., Oakville, ON, Canada. Drug solutions and vehicles (controls) were prepared and assayed under subdued light conditions.
(§1) Nb2 lymphoma is of a pre-T cell origin. The parental line (Nb2 U17) is non-metastatic as subcutaneous implants whereas subline Nb2-SFJCD1 is highly metastatic. Nb2-SFJCD1 cultures (doubling time = 12 - 13 hr) were maintained in Fischer's medium (Sigma-Aldrich), supplemented with 10.0 % horse gelding serum (lactogen-deficient; one batch, ICN Biomedicals, Inc., Auroro, OH), penicillin (50 U/ml) and streptomycin (50 µg/ml). In this medium the cells grow as clumps which can be readily dispersed. Nb2 lymphoma cell lines are used by a number of laboratories; the Nb2-11 subline, is available from the European Collection of Animal Cell Cultures (ECACC) in Salisbury, U.K. The Nb2-U17 and Nb2-SJFCD1 cell lines are available from Dr. Peter W. Gout, B.C. Cancer Research Centre, Vancouver, B.C., Canada.
Nb2-SFTCD1 cells from log phase cultures were centrifaged (3.5 min at 350xg) and gently resuspended in fresh Fisher's medium containing 10% horse gelding serum. Aliquots (1.80 ml) were distributed in 12-well tissue culture plates (Linbro, Flow Laboratories, Mississauga, ON, Canada) and preincubated for 3 - 5 hours at 37°C in a water-saturated 5% CO2/air atmosphere. Solutions of the drugs (200 µl portions) were then added to the cultures for a 45 hour incubation (Cin = 1.0x10^5 cells/ml). Cell populations were determined using an electronic counter (Coulter Electronics, Hialeah, FL).

MCF-7 cells = experiment: Cell proliferation of MCF-7 breast carcinoma cells; format: cell-based, human; settings: 10 mM
Description: (§2) The effect of sulfasalazine on cell proliferation was subsequently assessed. […] Thus, the xc^- transporter is a target for the anti-cancer actions of sulfasalazine in human breast carcinoma.

Nb2-U17 tumor transplant = experiment: Assay of tumor growth inhibition in rats; format: in vivo, Nb rats; settings: b.i.d., 7-day period
Protocol: (§3) A colony of Nb rats is maintained in the British Columbia Cancer Research Centre Vancouver, B.C., Canada. Approximately equal portions of minced Nb2-U17 tumor tissue, developed subcutaneously in a rat following injection of cultured Nb2-U17 cells, were injected by trocar subcutaneously in the nape of the neck of groups of male Nb rats (one injection per rat), that had been lightly anesthetized with isoflurane (Abbott Laboratories Ltd., Montreal, Canada). […] 2 % CMC or saline were used for controls. Drug preparation and administration were carried out under subdued light conditions. Food and water were provided ad libitum. Tumor size, body weight and general health of the rats were monitored twice a day. Tumor size was measured using calipers and expressed in grams using the formula: π/6 x length x width x height in cm. […] On necropsy the animals were examined for evidence of metastatic spread with particular attention to tissues such as kidneys, liver and spleen, the target tissues of metastatic Nb2 lymphoma cells. Tissue sections were taken for histologic analysis. Non-tumor-bearing animals were used to establish maximally tolerated dosages.

DoHH2 cells = experiment: Culture growth inhibition assay using DoHH2 cells; format: cell-based, human; settings: 1.5% FBS, 0.05 mM, at hr 45, Fig. 4
Protocol: as §1, with “Canada. DoHH2 cell suspension cultures (doubling time ca. 20 hours) were maintained in RPMI-1640 medium (Stem Cell Technology, Vancouver, B.C., Canada) containing fetal bovine serum (5%), horse serum (5%) and antibiotics.” for “Canada.”
Assays using DoHH2 cells were similarly performed, using their maintenance medium; Cin = ca. 1.5x10^5 cells/ml (see: Kluin-Nelemans, H.C. et al. (1991) Leukemia 5:221.)

[3] = rat, in vivo
Protocol: as §3

MDA-MB-231 cells = experiment: Cell proliferation of MDA-MB-231 breast carcinoma cells; format: cell-based, human
Description: as §2

[4] = as reported in the literature for patients/controls undergoing treatment with the drugs
[5] = Rattus norvegicus, 45 h at 37°C, Fischer's medium containing 10.0% horse gelding serum

Structure (SMILES): Nc1ccc(O)c(C(=O)O)c1 [5-aminosalicylic acid]
Therapeutic drug levels in plasma [1, 4]: ca. 0.01 mM

Structure (SMILES): CC(C)Cc1ccc(C(C)C(=O)O)cc1 (stereo not drawn) [Ibuprofen]
inhibition at 100 µM ([2]; Rattus norvegicus, 0.1 mM (therapeutic concentration), Fig. 1, read-out: inhibited the growth of the Nb2 cell cultures): 5 to 10% | IC50 [2, 5]: 0.43 ± 0.01 mM | Therapeutic drug levels in plasma ([1]; in vivo): 0.05 to 0.1 mM

Structure (SMILES): N[C@@H](CCC(=O)O)C(=O)[O-].[Na+] [Monosodium glutamate]
inhibition of proliferation (MCF-7 cells): to an extent similar to that observed for sulfasalazine | inhibition of proliferation with addition of 2-ME (MCF-7 cells; 2-ME added to the cultures): completely negated this effect

Structure (SMILES): O=C([O-])c1ccccc1O.[Na+] [Salicylate, sodium, sodium salicylate]
IC50 ([2]; Rattus norvegicus, 45 h): 1.82 ± 0.12 mM | inhibition at 3000 µM ([2]; Rattus norvegicus, read-out: inhibited the growth of the Nb2 cell cultures): ~70% | growth-inhibitory effect in the presence of elevated cystine [2]: only marginally affected | Therapeutic drug levels in plasma [1, 4]: 1 to 3 mM | tumor growth inhibition (Nb2-U17 tumor transplant; i.p. 150 mg/kg body wt, 150 mg/kg): did not inhibit tumor growth; also recorded: had no effect

Structure (SMILES): Nc1ccc(S(=O)(=O)Nc2ccccn2)cc1 [sulfapyridine]
Therapeutic drug levels in plasma [1, 4]: 0.08 to 0.2 mM

Second part, led by results:

IC50 [2, 5]: 0.3 ± 0.02 mM
Structure (SMILES): CN1C(C(=O)Nc2ccccn2)=C(O)c2ccccc2S1(=O)=O [Piroxicam]
inhibition at 30 µM ([2]; Rattus norvegicus, 0.03 mM (therapeutic concentration), Fig. 1, read-out: inhibited the growth of the Nb2 cell cultures): 5 to 10% | Therapeutic drug levels in plasma ([1]; in vivo): 0.015 to 0.03 mM

IC50 [2, 5]: 1.34 ± 0.13 mM
Structure (SMILES): NC(=O)c1ccccc1O [Salicylamide]

IC50 (MDA-MB-231 cells; Homo sapiens, MDA-MB-231): 300 ± 5 µM | IC50 [2, 5]: ~0.17 mM
Structure (SMILES): O=C(O)c1cc(/N=N/c2ccc(S(=O)(=O)Nc3ccccn3)cc2)ccc1O [Sulfasalazine]
cell lysis (DoHH2 cells): extensive cell lysis | side effects (general health and appearance) [3]: no major side effects | minor side effect ([3]; ip): thickening of tissue at the site of the injections | antagonism of the inhibitory actions by 2-ME (MDA-MB-231 cells; 2-ME (60µM)): completely antagonized | growth arrest ([2]; 0.15 mM, 45 hour experiment): only partially arrested growth | growth-inhibitory effect in the presence of elevated cystine [2]: substantially reduced | growth-inhibitory activity ([2]; range 0.1 - 0.3 mM, Fig. 2): highly potent | Therapeutic drug levels in plasma [1, 4]: 0.08 to 0.2 mM | lymphoma growth-inhibitory effect (Nb2-U17 tumor transplant; oral administration, 500 mg/kg body wt): only minor lymphoma growth-inhibitory effect
